These results are taken from paper PMC5808105, “Sublingual Administration of Sildenafil Oro-dispersible Film: New Profiles of Drug Tolerability and Pharmacokinetics for PDE5 Inhibitors” (Frontiers in Pharmacology, 2018).

For series [1] the following is noted: cited from earlier work.
Series [2] in a line: Trans-mucosal permeation test (vertical diffusion system). The settings on record: HBSS, donor-receiver chambers, 0-40 min; equivalent to 50 mg Sild; result in words. Format: in vitro ADME. The procedure: Trans-mucosal permeation profile of Sild was evaluated in vitro by using a specific device according to [Delvadia et al. (2012)] appropriately modified. Briefly, the device consisted in a vertical diffusion system featured by donor–receiver chambers separated by a disposable cellulose–acetate membrane (pore 0.45 μm). The donor cell contained 1.5 ml of HBSS, whereas the receiver chamber was part of a closed recirculation circuit of 30 ml including the volumes of tubing and reservoir. Sampling was performed from receiver chamber reservoir at the time intervals of 0, 5, 10, 20, 30, and 40 min and replaced by an equivalent volume of fresh HBSS. The samples were analyzed by HPLC-UV for drug content ([Fejős et al., 2014]). Data were normalized on the highest permeated Sild concentration observed for pure Sild citrate. Tests were performed in triplicate and results were reported as mean value ± standard deviation.

Details of series [3]: method as in Zayed et al., 2012; Sun et al., 2014. Conditions: result in words; ref Zayed et al., 2012; Sun et al., 2014; cited from earlier work.

As a reminder, the bioavailability is the share of a dose that reaches the circulation, judged against a reference dose that is usually intravenous. Take `CCCc1nc(C)c2c(=O)[nH]c(-c3cc(S(=O)(=O)N4CCN(CC)CC4)ccc3OCC)nn12` [Vardenafil]: the bioavailability in series [1] (ref Center for Drug Evaluation and Research, 2003) is approximately 15%. Take `CCCc1nn(C)c2c(=O)[nH]c(-c3cc(S(=O)(=O)N4CCN(C)CC4)ccc3OCC)nc12.O=C(O)CC(O)(CC(=O)O)C(=O)O` [Sild citrate]: the “permeation of Sild through cellulose acetate membrane” value in series [2] is “free and fast diffusion between the two chambers”. On to `CCCc1nn(C)c2c(=O)[nH]c(-c3cc(S(=O)(=O)N4CCN(C)CC4)ccc3OCC)nc12` [Sild, Sildenafil], for which the “time to peak plasma concentration” value in series [1] (after oral administration, ref Gupta et al., 2005) is 0.5 to 2 h. For the same compound, the oral bioavailability in series [1] (ref Gupta et al., 2005) is listed as 38–41%. In series [3], the water solubility entry was “low water solubility”.
